Source: patent US10537650B2, “Molecular probes for multimodality imaging and tracking of stem cells” (University of Massachusetts, priority 2012, dated 2020)

Legend:
Assay type in all cases: in vivo, mouse
[1] = SPECT/CT, whole body count and optical imaging of ^111In-MTTI-157 labeled BL/6 mES cells in NU/NU mice
Protocol: BL/6 wild type mouse embryonic stem cells (mES) were labeled with ^111In-MTTI-157 at the concentration of 12 μM and about 250 μCi/ml according to the method described before. The labeled cells (5 in 0.1 ml PBS (5×10^6 per mouse) were injected into NU/NU mice by tail vein or subcutaneously on the left shoulder. SPECT/CT imaging was done at 30 min, 21 h and day 4 after injection subcutaneously, and at 1 h, 22 h and day 4 when injected by tail vein. Optical imaging was performed through day 11 for the subcutaneous delivery of cells. The whole body radioactivity was measured through day 7 by placing the animal in a dose calibrator.
The lungs, liver, and spleen were removed from the mouse injected by tail vein when sacrificed on day 19, and the teratoma was removed from mouse injected subcutaneously on the left shoulder when sacrificed on day 15. Excised organs and teratoma were imaged on the Li-Cor Biosciences Pearl Imager, and then set in OCT for frozen sections. The frozen sections were stained with the general membrane fluorescent stain D275 (Invitrogen, Em: 484 nm, Ex: 501 nm) and detected on an Olympus IX 70 Inverted Light Microscope (Olympus America, Inc., NY) using a FITC filter for D275 and a Cy5 filter for MTTI-157. D275 is a cell membrane stain and was used here to stain the field of view. The frozen sections were also stained with hematoxylin-eosin (H&E) for standard microscopy.

[2] = SPECT/CT, whole body count and optical imaging of ^111In-MTTI-157 labeled TC1 mES cells in NU/NU mice; details: for distribution of radioactivity (SPECT/CT): NU/NU mice
Protocol: All animal experiments were approved by the Institutional Animal Care and Use Committee of the university. Male NU/NU mice from Charles River Laboratories International, Inc. (Wilmington, Mass.), about 8 week-old, were used here, and fed a white chow (AIN-93G Purified Diet, Harlan, Madison, Wis.) and water, and housed under standard conditions. TC1 wild type mES cells were labeled with ^111In-MTTI-157 at the dye concentration of 20 μM with about 50 μCi/ml per labeling mix according to the method described before. Then about 4-5 μCi of ^111In-MTTI-157 labeled cells in 0.1 ml PBS (5×10^6 per mouse) was injected into NU/NU mice by tail vein or delivered subcutaneously on the left shoulder. The mice were followed by SPECT/CT imaging (NanoSPECT/CT, Bioscan, Inc., Washington, D.C.) with scans at 1 h and 19 h for injection subcutaneously, and at 30 min and 18 h for injection by tail vein.
The whole body radioactivity was measured through day 9 after injection by placing the mouse in a dose calibrator (Capintec).
(§1) The SPECT image parameters were 1.0 mm/pixel, 256×256 frame size and 60 sec per projection with 24 projections. Acquisition time was approximately 30 min. During imaging, the animal was anesthetized with 1-2% isoflurane in 1.5 liters/min oxygen. A CT scan was acquired prior to the SPECT scan and was performed at standard resolution, using a 45 kVp voltage and 500 milliseconds exposure time. The CT and SPECT reconstruction was performed using InVivoScope 1.43 software (Bioscan, Washington, D.C.).
Optical images (Pearl Imager, LiCor Biosciences, Lincoln, Nebr.) were acquired on day 0 and at intervals through day 28. After imaging, the lungs, liver, spleen and teratoma were removed, imaged and then imbedded in OCT in preparation for frozen section fluorescence microscopy. Slides were counter stained with the general membrane stain D275 (Invitrogen, Em: 484 nm, Ex: 501 nm). Slides were viewed in an Olympus IX 70 Inverted Light Microscope (Olympus America, Inc., NY) using filters for FITC (for D275) and Cy5 (for MTTI-157). […]

[3] = SPECT/CT, whole body activity and optical imaging of ^111In-MTTI-157 labeled LS174T cells in SKH-1 mice
Protocol: ^111In-MTTI-157 labeled LS174T cells were administered to mice to follow their fate and that of the labels they carried. All animal experiments were approved by the Institutional Animal Care and Use Committee of the university. Male SKH-1 mice about 8 week-old (Charles River Laboratories, Inc., Wilmington, Mass.) were housed under standard conditions and fed white chow (AIN-93G Purified Diet, Harlan, Madison, Wis.). LS174T cells were prepared labeled with ^111In-MTTI-157 as above, and about 5×10^6 cells with 10-12 μCi was injected by tail vein per mouse.
as §1, with “The mice were followed by SPECT/CT imaging (NanoSPECT/CT, Bioscan, Inc., Washington, D.C.) with scans at 30 min, 1 h, 24 h, 72 h, 120 h and 168 h following injection. The SPECT” for “The SPECT”, “in 1.5 L/min oxygen. A” for “in 1.5 liters/min oxygen. A”
Optical images (Pearl Imager, LiCor Biosciences, Lincoln, Nebr.) were acquired on day 0 and at intervals through day 28. To facilitate detection of signal at depth, such as in the lungs, some animals were killed, the chest and abdomen opened to expose internal organs, and then imaged. Untreated mice served as control. After imaging, the lungs, liver and spleen were removed, imaged and then imbedded in OCT in preparation for frozen section fluorescence microscopy. Slides were counter stained with the general membrane stain D275 (Invitrogen). Slides were viewed in an Olympus IX 70 Inverted Light Microscope (Olympus America, Inc., NY) using filters for FITC (for D275) and Cy5 (for MTTI-157).

whole body ^111In retention (decay corrected) ([3]; SKH-1 mice, labeled LS174T cells by tail vein): retention out thru Day 14
loss of whole body activity (half-life corrected) ([3]; from day 0 to day 10, dose calibrator, SKH-1 mice): about 23%
label stability in vivo ([3]; monitoring of cells out through 28 days in vivo): no evidence of label instability
Structure (SMILES): CCCCCCCCCCCCCCCCCCCCCCN1C(=CC=CC=CC2=[N+](CCCCCCCCCCCCCCCCCCCCCC)c3ccc(CNC(=O)CN4CCN(CC(=O)[O-])CCN(CC(=O)[O-])CCN(CC(=O)[O-])CC4)cc3C2(C)C)C(C)(C)c2ccccc21.[111In+3].[I-] [^111In-MTTI-157]
distribution of radioactivity (SPECT/CT) ([1]; labeled BL/6 mES cells by tail vein, NU/NU mice): accumulated in the lungs by 1 h following injection which then distributed to the liver and spleen by 22 h
distribution of radioactivity (SPECT/CT) ([1]; labeled BL/6 mES cells subcutaneously on left shoulder, through day 4): retained in the shoulder without distribution to other tissue
whole body radioactivity ([1]; labeled BL/6 mES cells, measured through day 7 in dose calibrator): unchanged from 2 h to 21 h after injection, but then decreases slightly at 91 h and remain at this level through 165 h
distribution of radioactivity (SPECT/CT) ([2]; labeled TC1 mES cells injected by tail vein): accumulated in the lungs at 1 h after injection and then distributed to liver and spleen by 19 h
distribution of radioactivity (SPECT/CT) ([2]; labeled TC1 mES cells injected subcutaneously on the left shoulder): retained in the shoulder and did not distribution to other tissue through 18 h
whole body radioactivity corrected for decay ([2]; tail vein and subcutaneous injection of labeled TC1 mES cells, dose calibrator): retained in the body through day 9
distribution of radioactivity (SPECT/CT) ([3]; labeled LS174T cells by tail vein, SKH-1 mice, earliest scan 30 min and 1 h, then within a day): restricted to the lungs and then seen to redistribute within a day to the liver and spleen
